According to ChEMBL document CHEMBL1142024, “Glucokinase-activating ureas” (Bioorg Med Chem Lett, 2005):
The source made the active and inactive calls. The calls are words filed in the database; no cut-off is given here.

Experiments:
Hexokinase-4 [1] = target: T1, Hexokinase-4 (Rattus norvegicus, UniProt P17712); experiment: Effective concentration for glucokinase activation with 5 mM glucose; assay type: functional
T1 sequence (P17712 whole entry): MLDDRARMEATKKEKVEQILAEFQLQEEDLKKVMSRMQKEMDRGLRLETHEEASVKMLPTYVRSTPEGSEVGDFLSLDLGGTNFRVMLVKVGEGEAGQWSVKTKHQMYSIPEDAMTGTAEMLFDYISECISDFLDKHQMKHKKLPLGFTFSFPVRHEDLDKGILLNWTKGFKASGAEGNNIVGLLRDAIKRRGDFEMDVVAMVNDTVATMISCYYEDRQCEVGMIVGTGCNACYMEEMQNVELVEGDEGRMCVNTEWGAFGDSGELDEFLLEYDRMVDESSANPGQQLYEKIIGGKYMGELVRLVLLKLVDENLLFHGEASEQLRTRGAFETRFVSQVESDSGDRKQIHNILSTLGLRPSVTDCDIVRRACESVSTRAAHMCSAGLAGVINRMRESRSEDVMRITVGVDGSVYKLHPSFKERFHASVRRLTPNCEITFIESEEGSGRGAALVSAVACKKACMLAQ

[2] = target: T2, Hexokinase-4 (Rattus norvegicus) (UniProt P17712); experiment: Maximal activation of glucokinase; NA - No activation at 30 uM
T2 sequence (whole entry): T1 sequence (P17712 whole entry)

Hexokinase-4 [3] = target: T1, Hexokinase-4; experiment: Effective concentration for glucokinase activity; NA - No activation at 30 uM; assay type: functional
[4] = target: T2, Hexokinase-4 (Rattus norvegicus); experiment: Maximal activation of glucokinase at 15 mM glucose
Hexokinase-4 [5] = target: T1, Hexokinase-4; experiment: Effective concentration for glucokinase activation with 15 mM glucose; assay type: functional
Hexokinase-4 [6] = target: T1, Hexokinase-4; experiment: Effective concentration for glucokinase activation; NA - No activation at 30 uM; assay type: functional

O=C(Nc1ncc(Cl)s1)N(CC1CCCC1)c1ccc(C(F)(F)F)cc1
EC50 (Hexokinase-4 [1]): 1.3 µM

CS(=O)(=O)c1ccc(N(CC2CCOC2)C(=O)Nc2ncc(Cl)s2)cc1 (stereo not given)
EC50 (Hexokinase-4 [1]): 21.9 µM

Cc1ccc(N(CC2CCCC2)C(=O)Nc2ncc(Cl)s2)cc1Cl
EC50 (Hexokinase-4 [1]): 0.4 µM

COc1ccc(N(CC2CCCC2)C(=O)NC2=NC(=O)CS2)cn1
EC50 (Hexokinase-4 [1]): 29.1 µM

CS(=O)(=O)c1ccc(N(Cc2cccs2)C(=O)Nc2ncc(Cl)s2)cc1
EC50 (Hexokinase-4 [1]): 6.6 µM

CS(=O)(=O)c1ccc(N(Cc2ccsc2)C(=O)Nc2ncc(Cl)s2)cc1
EC50 (Hexokinase-4 [1]): 6.8 µM

CS(=O)(=O)c1ccc(N(CC2CCCC2)C(=O)Nc2ncc(Cl)s2)cc1
EC50 (Hexokinase-4 [1]): 1.5 µM

O=C(Nc1ncc(Cl)s1)N(CC1CCCC1)c1ccc(N2CCOCC2)cc1
Activity [2]: inactive
EC50 (Hexokinase-4 [3]): Not Active

O=C(Nc1nccs1)N(CC1CCCC1)c1ccc(F)c(F)c1
EC50 (Hexokinase-4 [1]): 16.3 µM

COc1cccc(N(CC2CCCC2)C(=O)Nc2ncc(Cl)s2)c1
EC50 (Hexokinase-4 [1]): 1.4 µM

COc1ccc(N(CC2CCCC2)C(=O)Nc2ncc(Cl)s2)cn1
EC50 (Hexokinase-4 [1]): 2.7 µM

CS(=O)(=O)c1ccc(C(CC2CCCC2)C(=O)Nc2nccs2)cc1 (stereo not given)
Activity [4]: 1.6
EC50 (Hexokinase-4 [1]): 2.2 µM
EC50 (Hexokinase-4 [5]): 1 µM

O=C(Nc1ncc(Cl)s1)N(CC1CCCC1)c1ccc(F)c(F)c1
EC50 (Hexokinase-4 [1]): 2.6 µM

CC(=O)Nc1cccc(N(CC2CCCC2)C(=O)Nc2ncc(Cl)s2)c1
EC50 (Hexokinase-4 [1]): 0.3 µM

N#Cc1ccc(N(CC2CCCC2)C(=O)Nc2ncc(Cl)s2)cn1
EC50 (Hexokinase-4 [1]): 7.7 µM

N#Cc1ccc(N(CC2CCCC2)C(=O)Nc2ncc(Cl)s2)cc1
EC50 (Hexokinase-4 [1]): 2.4 µM

COc1ccc(N(CC2CCCC2)C(=O)Nc2ncc(Br)s2)cn1
EC50 (Hexokinase-4 [1]): 2 µM

COc1ccc(N(CC2CCCC2)C(=O)Nc2nccs2)cn1
EC50 (Hexokinase-4 [1]): 19.2 µM

O=C(Nc1ncc(Cl)s1)N(CC1CCCC1)c1ccc(Oc2ccccc2)cc1
Activity [2]: inactive
EC50 (Hexokinase-4 [3]): Not Active

CS(=O)(=O)c1ccc(N(CC2CCCC2)C(=O)Nc2nnc(C(F)(F)F)s2)cc1
EC50 (Hexokinase-4 [1]): 34.2 µM

CS(=O)(=O)c1ccc(N(CC2CCCO2)C(=O)Nc2ncc(Cl)s2)cc1 (stereo not given)
EC50 (Hexokinase-4 [1]): 21.6 µM

O=C(Nc1ccccn1)N(CC1CCCC1)c1ccc(F)c(F)c1
Activity [2]: inactive
EC50 (Hexokinase-4 [6]): Not Active

COc1ccc(N(CC2CCCC2)C(=O)Nc2nncs2)cn1
Activity [2]: inactive
EC50 (Hexokinase-4 [6]): Not Active

CS(=O)(=O)c1ccc(N(CC2CCCC2)C(=O)Nc2nc3ccc(S(C)(=O)=O)cc3s2)cc1
EC50 (Hexokinase-4 [1]): 32.9 µM

O=C(Nc1ncc(Cl)s1)N(CC1CCCC1)c1ccc(Br)c(F)c1
EC50 (Hexokinase-4 [1]): 0.7 µM

CS(=O)(=O)c1ccc(N(CC2CCOCC2)C(=O)Nc2ncc(Cl)s2)cc1
EC50 (Hexokinase-4 [1]): 4.9 µM

NS(=O)(=O)c1ccc(N(CC2CCCC2)C(=O)Nc2ncc(Cl)s2)cc1
EC50 (Hexokinase-4 [1]): 1.8 µM

NC(=O)c1cccc(N(CC2CCCC2)C(=O)Nc2ncc(Cl)s2)c1
EC50 (Hexokinase-4 [1]): 1 µM

CS(=O)(=O)c1ccc(N(CC2CCCC2)C(=O)Nc2nccs2)cc1
Activity [4]: 2.8
EC50 (Hexokinase-4 [1]): 16 µM
EC50 (Hexokinase-4 [5]): 9.7 µM

CS(=O)(=O)c1ccc(N(Cc2ccsc2)C(=O)Nc2ncc(Br)s2)cc1
EC50 (Hexokinase-4 [1]): 6.5 µM

CS(=O)(=O)c1ccc(N(Cc2ccco2)C(=O)Nc2ncc(Cl)s2)cc1
EC50 (Hexokinase-4 [1]): 11.5 µM

CS(=O)(=O)c1ccc(N(Cc2nccs2)C(=O)Nc2ncc(Br)s2)cc1
EC50 (Hexokinase-4 [1]): 24.1 µM
